The kinase profiling compilation of Christmann-Franck et al. (2016)

Columns and labels:
HIPK1 (human) [1] = biological target: HIPK1 (human) (UniProt Q86Z02); assay: SelectScreen, TR FRET
HIPK2 (human) = HIPK2 (human) (UniProt Q9H2X6); assay: SelectScreen, TR FRET
RPS6KA6 KD2 (human) = RPS6KA6 KD2 (human) (UniProt Q9UK32); assay: KINOMEscan competition binding; details: compound 10.0 µM
[2] = tested on: EIF2AK4 KD2 (human), Q9P2K8 [S808G]; assay: KINOMEscan competition binding; details: compound 10.0 µM
STK33 (human) = STK33 (human) (UniProt Q9BYT3); assay: KINOMEscan competition binding; details: compound 10.0 µM
GAK (human) = GAK (human) (UniProt O14976); assay: KINOMEscan competition binding; details: compound 10.0 µM
TTK (human) = TTK (human) (UniProt P33981); assay: KINOMEscan competition binding; details: compound 10.0 µM
RPS6KA4 KD2 (human) = RPS6KA4 KD2 (human) (UniProt O75676); assay: KINOMEscan competition binding; details: compound 10.0 µM
Chain of RPS6KA4 KD2 (human) (O75676 whole entry, looked up): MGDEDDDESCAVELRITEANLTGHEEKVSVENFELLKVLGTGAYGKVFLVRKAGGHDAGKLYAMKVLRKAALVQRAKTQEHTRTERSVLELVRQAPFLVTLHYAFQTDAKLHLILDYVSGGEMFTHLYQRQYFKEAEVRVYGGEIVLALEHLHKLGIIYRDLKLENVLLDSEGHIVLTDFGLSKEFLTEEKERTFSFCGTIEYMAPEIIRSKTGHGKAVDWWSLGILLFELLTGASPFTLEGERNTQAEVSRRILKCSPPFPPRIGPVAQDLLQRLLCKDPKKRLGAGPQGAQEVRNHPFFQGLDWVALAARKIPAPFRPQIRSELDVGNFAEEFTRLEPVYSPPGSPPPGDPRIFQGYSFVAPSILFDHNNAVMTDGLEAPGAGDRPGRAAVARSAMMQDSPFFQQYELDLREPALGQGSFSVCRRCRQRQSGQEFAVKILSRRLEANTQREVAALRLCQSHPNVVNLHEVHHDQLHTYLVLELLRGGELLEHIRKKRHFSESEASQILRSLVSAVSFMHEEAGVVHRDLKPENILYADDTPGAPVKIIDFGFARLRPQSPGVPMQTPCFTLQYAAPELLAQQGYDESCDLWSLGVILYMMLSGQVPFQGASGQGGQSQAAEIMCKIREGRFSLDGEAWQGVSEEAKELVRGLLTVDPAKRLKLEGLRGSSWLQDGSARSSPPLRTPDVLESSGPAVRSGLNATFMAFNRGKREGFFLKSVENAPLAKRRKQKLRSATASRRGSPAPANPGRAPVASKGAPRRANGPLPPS

RPS6KA1 KD2 (human) = RPS6KA1 KD2 (human) (UniProt Q15418); assay: KINOMEscan competition binding; details: compound 10.0 µM
PRKD1 (human) = PRKD1 (human) (UniProt Q15139); assay: KINOMEscan competition binding; details: compound 10.0 µM
PLK3 (human) = PLK3 (human) (UniProt Q9H4B4); assay: KINOMEscan competition binding; details: compound 10.0 µM
RPS6KA2 KD2 (human) = RPS6KA2 KD2 (human) (UniProt Q15349); assay: KINOMEscan competition binding; details: compound 10.0 µM
MYLK (human) = MYLK (human) (UniProt Q15746); assay: KINOMEscan competition binding; details: compound 10.0 µM
PRKD2 (human) = PRKD2 (human) (UniProt Q9BZL6); assay: KINOMEscan competition binding; details: compound 10.0 µM
Chain of PRKD2 (human) (Q9BZL6 whole entry, looked up): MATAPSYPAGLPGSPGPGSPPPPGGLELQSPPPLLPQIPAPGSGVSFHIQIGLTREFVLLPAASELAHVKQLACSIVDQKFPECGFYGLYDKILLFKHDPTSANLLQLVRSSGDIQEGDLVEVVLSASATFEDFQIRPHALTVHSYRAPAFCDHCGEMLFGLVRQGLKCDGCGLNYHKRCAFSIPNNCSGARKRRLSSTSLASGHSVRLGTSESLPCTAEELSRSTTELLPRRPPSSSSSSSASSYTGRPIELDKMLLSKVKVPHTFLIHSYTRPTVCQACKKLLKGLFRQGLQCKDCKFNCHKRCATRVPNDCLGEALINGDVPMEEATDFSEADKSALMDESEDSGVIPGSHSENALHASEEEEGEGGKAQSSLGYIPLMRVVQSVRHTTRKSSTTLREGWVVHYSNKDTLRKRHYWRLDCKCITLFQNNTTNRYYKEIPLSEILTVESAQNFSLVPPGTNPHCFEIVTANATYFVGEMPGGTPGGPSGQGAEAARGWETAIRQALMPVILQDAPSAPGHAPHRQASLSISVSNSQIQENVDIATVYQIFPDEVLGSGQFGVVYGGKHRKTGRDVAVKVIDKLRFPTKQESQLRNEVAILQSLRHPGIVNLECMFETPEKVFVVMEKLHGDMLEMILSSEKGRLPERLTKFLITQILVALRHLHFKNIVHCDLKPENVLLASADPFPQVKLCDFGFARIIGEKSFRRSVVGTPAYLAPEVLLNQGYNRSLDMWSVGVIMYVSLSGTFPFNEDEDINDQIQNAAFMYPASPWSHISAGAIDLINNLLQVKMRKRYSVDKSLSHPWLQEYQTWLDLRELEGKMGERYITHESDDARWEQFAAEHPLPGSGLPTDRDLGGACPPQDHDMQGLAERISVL

DCLK2 (human) = DCLK2 (human) (UniProt Q8N568); assay: KINOMEscan competition binding; details: compound 10.0 µM
DCLK1 (human) = DCLK1 (human) (UniProt O15075); assay: KINOMEscan competition binding; details: compound 10.0 µM
CHEK1 (human) = CHEK1 (human) (UniProt O14757); assay: KINOMEscan competition binding; details: compound 10.0 µM
PLK4 (human) = PLK4 (human) (UniProt O00444); assay: KINOMEscan competition binding; details: compound 10.0 µM
PLK1 (human) = PLK1 (human) (UniProt P53350); assay: KINOMEscan competition binding; details: compound 10.0 µM
[3] = tested on: PIK3CA (human), P42336 [E545K]; assay: KINOMEscan competition binding; details: compound 10.0 µM
TGFBR2 (human) = TGFBR2 (human) (UniProt P37173); assay: KINOMEscan competition binding; details: compound 10.0 µM
PIM3 (human) = PIM3 (human) (UniProt Q86V86); assay: KINOMEscan competition binding; details: compound 10.0 µM
CLK4 (human) = CLK4 (human) (UniProt Q9HAZ1); assay: KINOMEscan competition binding; details: compound 10.0 µM
PIM1 (human) [4] = biological target: PIM1 (human) (UniProt P11309); assay: KINOMEscan competition binding; details: compound 10.0 µM
Chain of PIM1 (human) (P11309 whole entry, looked up): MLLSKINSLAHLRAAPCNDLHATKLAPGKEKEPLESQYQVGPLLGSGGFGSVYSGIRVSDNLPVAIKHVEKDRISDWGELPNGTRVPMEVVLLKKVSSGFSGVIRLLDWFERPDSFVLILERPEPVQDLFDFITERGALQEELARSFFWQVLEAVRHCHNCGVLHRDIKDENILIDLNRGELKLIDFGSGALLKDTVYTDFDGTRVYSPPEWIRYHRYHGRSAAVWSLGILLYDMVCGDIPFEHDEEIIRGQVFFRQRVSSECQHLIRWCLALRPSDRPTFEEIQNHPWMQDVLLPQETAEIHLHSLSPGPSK

STK17A (human) = STK17A (human) (UniProt Q9UEE5); assay: KINOMEscan competition binding; details: compound 10.0 µM
DYRK1B (human) = DYRK1B (human) (UniProt Q9Y463); assay: KINOMEscan competition binding; details: compound 10.0 µM
TAOK3 (human) = TAOK3 (human) (UniProt Q9H2K8); assay: KINOMEscan competition binding; details: compound 10.0 µM
CAMKK1 (human) = CAMKK1 (human) (UniProt Q8N5S9); assay: KINOMEscan competition binding; details: compound 10.0 µM
MINK1 (human) = MINK1 (human) (UniProt Q8N4C8); assay: KINOMEscan competition binding; details: compound 10.0 µM
CLK1 (human) = CLK1 (human) (UniProt P49759); assay: KINOMEscan competition binding; details: compound 10.0 µM
PIM2 (human) [5] = biological target: PIM2 (human) (UniProt Q9P1W9); assay: KINOMEscan competition binding; details: compound 10.0 µM
Chain of PIM2 (human) (Q9P1W9 whole entry, looked up): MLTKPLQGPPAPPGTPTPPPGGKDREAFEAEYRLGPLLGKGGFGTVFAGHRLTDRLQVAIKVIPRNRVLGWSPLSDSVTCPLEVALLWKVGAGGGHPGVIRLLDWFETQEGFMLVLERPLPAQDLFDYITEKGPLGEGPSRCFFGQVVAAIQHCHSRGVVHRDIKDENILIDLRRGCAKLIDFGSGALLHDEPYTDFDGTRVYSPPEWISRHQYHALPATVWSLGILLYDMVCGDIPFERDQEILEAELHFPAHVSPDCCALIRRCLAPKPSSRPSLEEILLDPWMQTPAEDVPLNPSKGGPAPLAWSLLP

CDK7 (human) = CDK7 (human) (UniProt P50613); assay: KINOMEscan competition binding; details: compound 10.0 µM
MAPK15 (human) = MAPK15 (human) (UniProt Q8TD08); assay: KINOMEscan competition binding; details: compound 10.0 µM
HIPK1 (human) [6] = biological target: HIPK1 (human) (UniProt Q86Z02); assay: KINOMEscan competition binding; details: compound 10.0 µM
DAPK2 (human) = DAPK2 (human) (UniProt Q9UIK4); assay: KINOMEscan competition binding; details: compound 10.0 µM
TAOK1 (human) = TAOK1 (human) (UniProt Q7L7X3); assay: KINOMEscan competition binding; details: compound 10.0 µM
CLK2 (human) = CLK2 (human) (UniProt P49760); assay: KINOMEscan competition binding; details: compound 10.0 µM
STK17B (human) = STK17B (human) (UniProt O94768); assay: KINOMEscan competition binding; details: compound 10.0 µM
CSNK2A1 (human) = CSNK2A1 (human) (UniProt P68400); assay: KINOMEscan competition binding; details: compound 10.0 µM
Chain of CSNK2A1 (human) (P68400 whole entry, looked up): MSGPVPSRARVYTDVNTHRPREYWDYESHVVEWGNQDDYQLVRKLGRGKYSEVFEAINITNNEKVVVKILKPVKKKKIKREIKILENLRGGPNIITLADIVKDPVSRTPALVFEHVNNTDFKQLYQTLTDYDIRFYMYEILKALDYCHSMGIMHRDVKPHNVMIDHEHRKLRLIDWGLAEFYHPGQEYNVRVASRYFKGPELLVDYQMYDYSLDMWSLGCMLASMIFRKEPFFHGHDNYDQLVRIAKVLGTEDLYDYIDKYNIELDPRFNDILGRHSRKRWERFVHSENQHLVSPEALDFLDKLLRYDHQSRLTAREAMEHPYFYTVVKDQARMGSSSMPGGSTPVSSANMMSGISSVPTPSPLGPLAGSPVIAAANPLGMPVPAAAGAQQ

PIM1 (human) [7] = biological target: PIM1 (human) (UniProt P11309); assay: SelectScreen, TR FRET
PIM2 (human) [8] = biological target: PIM2 (human) (UniProt Q9P1W9); assay: SelectScreen, TR FRET

Chain of HIPK1 (human) (Q86Z02 whole entry, looked up): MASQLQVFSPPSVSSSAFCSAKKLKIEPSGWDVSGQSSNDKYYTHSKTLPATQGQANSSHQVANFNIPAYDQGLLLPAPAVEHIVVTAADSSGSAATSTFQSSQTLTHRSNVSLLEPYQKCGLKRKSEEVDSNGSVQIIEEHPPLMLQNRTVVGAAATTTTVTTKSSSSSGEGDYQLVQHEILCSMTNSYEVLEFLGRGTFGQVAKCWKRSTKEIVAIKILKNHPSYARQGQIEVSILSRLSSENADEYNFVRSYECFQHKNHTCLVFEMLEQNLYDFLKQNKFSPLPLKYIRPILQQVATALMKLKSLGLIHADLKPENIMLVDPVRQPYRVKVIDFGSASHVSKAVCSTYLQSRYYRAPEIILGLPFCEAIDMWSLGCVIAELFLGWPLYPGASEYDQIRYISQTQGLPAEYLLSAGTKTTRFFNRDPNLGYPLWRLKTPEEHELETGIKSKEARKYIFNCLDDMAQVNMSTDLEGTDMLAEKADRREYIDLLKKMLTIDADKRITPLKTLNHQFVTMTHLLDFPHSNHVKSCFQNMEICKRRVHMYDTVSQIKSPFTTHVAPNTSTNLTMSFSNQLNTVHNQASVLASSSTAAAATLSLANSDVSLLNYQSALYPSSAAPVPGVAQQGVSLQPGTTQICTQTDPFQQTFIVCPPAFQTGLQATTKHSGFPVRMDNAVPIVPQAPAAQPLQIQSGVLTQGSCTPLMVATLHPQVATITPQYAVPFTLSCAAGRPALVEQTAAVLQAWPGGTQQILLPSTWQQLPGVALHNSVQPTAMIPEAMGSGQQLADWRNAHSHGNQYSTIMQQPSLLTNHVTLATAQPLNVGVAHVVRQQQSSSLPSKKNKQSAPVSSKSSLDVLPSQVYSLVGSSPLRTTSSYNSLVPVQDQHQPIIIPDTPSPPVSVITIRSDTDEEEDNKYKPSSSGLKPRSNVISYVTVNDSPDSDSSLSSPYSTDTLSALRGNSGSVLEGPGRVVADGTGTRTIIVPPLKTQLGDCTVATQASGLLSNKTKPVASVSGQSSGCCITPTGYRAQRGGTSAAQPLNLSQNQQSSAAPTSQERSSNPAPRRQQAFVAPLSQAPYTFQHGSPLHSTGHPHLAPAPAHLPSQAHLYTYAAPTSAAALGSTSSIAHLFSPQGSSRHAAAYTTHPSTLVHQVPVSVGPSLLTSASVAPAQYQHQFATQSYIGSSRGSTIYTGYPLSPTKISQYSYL
Chain of HIPK2 (human) (Q9H2X6 whole entry, looked up): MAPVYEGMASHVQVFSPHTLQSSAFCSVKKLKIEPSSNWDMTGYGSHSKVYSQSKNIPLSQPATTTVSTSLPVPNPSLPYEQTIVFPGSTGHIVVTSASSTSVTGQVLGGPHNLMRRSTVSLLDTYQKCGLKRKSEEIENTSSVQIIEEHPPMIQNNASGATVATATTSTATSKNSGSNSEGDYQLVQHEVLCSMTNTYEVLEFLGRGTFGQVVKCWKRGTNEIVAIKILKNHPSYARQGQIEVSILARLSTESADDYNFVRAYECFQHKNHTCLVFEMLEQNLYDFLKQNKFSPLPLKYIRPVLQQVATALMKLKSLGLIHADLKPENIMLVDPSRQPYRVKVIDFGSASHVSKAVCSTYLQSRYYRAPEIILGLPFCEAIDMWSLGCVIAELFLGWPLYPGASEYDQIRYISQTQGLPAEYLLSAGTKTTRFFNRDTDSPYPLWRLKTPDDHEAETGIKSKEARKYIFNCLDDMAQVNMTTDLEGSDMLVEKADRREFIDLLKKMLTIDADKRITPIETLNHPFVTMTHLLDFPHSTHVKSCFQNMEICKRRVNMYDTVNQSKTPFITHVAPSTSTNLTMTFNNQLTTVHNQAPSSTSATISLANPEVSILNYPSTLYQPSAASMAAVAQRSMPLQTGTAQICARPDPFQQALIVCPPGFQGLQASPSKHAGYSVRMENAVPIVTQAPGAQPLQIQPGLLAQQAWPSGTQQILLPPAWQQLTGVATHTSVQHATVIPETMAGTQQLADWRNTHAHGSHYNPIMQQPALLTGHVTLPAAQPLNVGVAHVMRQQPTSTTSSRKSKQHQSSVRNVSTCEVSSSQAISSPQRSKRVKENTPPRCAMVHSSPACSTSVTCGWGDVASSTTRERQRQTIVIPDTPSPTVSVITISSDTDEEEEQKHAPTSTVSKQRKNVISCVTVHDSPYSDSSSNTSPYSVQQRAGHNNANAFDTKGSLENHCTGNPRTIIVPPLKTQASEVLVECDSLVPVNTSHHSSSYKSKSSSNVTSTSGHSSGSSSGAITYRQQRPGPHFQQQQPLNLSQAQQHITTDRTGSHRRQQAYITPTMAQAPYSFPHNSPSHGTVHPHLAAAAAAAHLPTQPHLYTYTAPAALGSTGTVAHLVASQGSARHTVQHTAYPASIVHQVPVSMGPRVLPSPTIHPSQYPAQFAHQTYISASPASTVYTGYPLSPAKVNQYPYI

With `N=C1NC(=O)/C(=C/c2c[nH]c(=O)c(-c3cccc(N)c3)c2)S1` the IC50 (HIPK1 (human) [1]) was 317 nM and the IC50 (HIPK2 (human)) was 163 nM.

In the case of `O=C1NC(=O)/C(=C/c2c[nH]c(=O)c(-c3ccc(N4CCNCC4)nc3)c2)N1`, the IC50 (HIPK1 (human) [1]) is reported as greater than 10000 nM and the IC50 (HIPK2 (human)) is reported as greater than 10000 nM.

With `COc1cc(N2CCC(N3CCN(C)CC3)CC2)ccc1Nc1ncc2c(n1)N1CCCC1CC(=O)N2C` (stereo not given) the kinase still bound, per cent of control (RPS6KA6 KD2 (human)) was 17%, the kinase still bound, per cent of control [2] was 32% and the kinase still bound, per cent of control (STK33 (human)) was 7%. For the same molecule, the kinase still bound, per cent of control (GAK (human)) was 2.6%, the kinase still bound, per cent of control (TTK (human)) was 2.4% and the kinase still bound, per cent of control (RPS6KA4 KD2 (human)) was 30%. For the same molecule, the kinase still bound, per cent of control (RPS6KA1 KD2 (human)) was 28%, the kinase still bound, per cent of control (PRKD1 (human)) was 19% and the kinase still bound, per cent of control (PLK3 (human)) was 0.95%. For the same molecule, the kinase still bound, per cent of control (RPS6KA2 KD2 (human)) was 13%, the kinase still bound, per cent of control (MYLK (human)) was 24% and the kinase still bound, per cent of control (PRKD2 (human)) was 23%. It also gave a kinase still bound, per cent of control (DCLK2 (human)) of 25%, a kinase still bound, per cent of control (DCLK1 (human)) of 0.65% and a kinase still bound, per cent of control (CHEK1 (human)) of 29%. It also gave a kinase still bound, per cent of control (PLK4 (human)) of 26% and a kinase still bound, per cent of control (PLK1 (human)) of 1.8%.

For `O=C1NC(=O)/C(=C/c2c[nH]c(=O)c(-c3cnc4ccccc4c3)c2)S1`, the IC50 (HIPK1 (human) [1]) was 228 nM and the IC50 (HIPK2 (human)) was 178 nM.

`CC(=O)Nc1ccc(-c2ccc(/C=C3\SC(=N)NC3=O)o2)c(O)c1` gave a kinase still bound, per cent of control [3] of 25%, a kinase still bound, per cent of control (TGFBR2 (human)) of 13% and a kinase still bound, per cent of control (RPS6KA4 KD2 (human)) of 29%. The kinase still bound, per cent of control (PIM3 (human)) was 2.2%, the kinase still bound, per cent of control (CLK4 (human)) was 13% and the kinase still bound, per cent of control (PIM1 (human) [4]) was 1.6%. The kinase still bound, per cent of control (STK17A (human)) was 0.7%, the kinase still bound, per cent of control (DYRK1B (human)) was 23% and the kinase still bound, per cent of control (TAOK3 (human)) was 8.6%. The kinase still bound, per cent of control (CAMKK1 (human)) was 30%, the kinase still bound, per cent of control (MINK1 (human)) was 33% and the kinase still bound, per cent of control (CLK1 (human)) was 16%. For the same molecule, the kinase still bound, per cent of control (PIM2 (human) [5]) was 1.6%, the kinase still bound, per cent of control (CDK7 (human)) was 3.9% and the kinase still bound, per cent of control (MAPK15 (human)) was 0.4%. It also gave a kinase still bound, per cent of control (HIPK1 (human) [6]) of 2.6%, a kinase still bound, per cent of control (DAPK2 (human)) of 24% and a kinase still bound, per cent of control (TAOK1 (human)) of 4%. It also gave a kinase still bound, per cent of control (CLK2 (human)) of 4.8%, a kinase still bound, per cent of control (STK17B (human)) of 3% and a kinase still bound, per cent of control (CSNK2A1 (human)) of 32%. It also gave an IC50 (PIM1 (human) [7]) of 959 nM and an IC50 (PIM2 (human) [8]) of 298 nM.

`O=C1NC(=O)/C(=C/c2c[nH]c(=O)c(-c3ccc(N4CCC(N5CCCC5)CC4)nc3)c2)S1` was tested, and the IC50 (HIPK1 (human) [1]) was 6530 nM and the IC50 (HIPK2 (human)) was 4900 nM.

For `O=C1NC(=O)/C(=C/c2c[nH]c(=O)c(-c3cncc4ccccc34)c2)S1`, the IC50 (HIPK1 (human) [1]) was greater than 10000 nM and the IC50 (HIPK2 (human)) was greater than 10000 nM.
